Reference: patent publication US20250257059A1, “PROTEIN TYROSINE PHOSPHATASE INHIBITORS AND USES THEREOF” (Nerio Therapeutics, Inc., priority 2022, published 2025)
pIC50: −log10 of the molar value. Several values for one entry are separate records, joined by “and”; a condition that tells them apart may be missing. Equal values may be shown once. Read-outs that look alike come from different tables or passages of the source.

Tests used:
[1] = test system: murine B16F10 melanoma cell line; experiment: B16F10 IFNγ-induced cellular growth inhibition assay (xCELLigence RTCA); assay type: cell-based; conditions: B16F10 cells, 1 ng/mL mouse IFNγ, AUC of growth curve, read-out: B16 IFNγ Mediated Growth Inhibition Assay: AVG IC50
Description: Compound activity was determined using an interferon gamma (IFNγ)-induced cellular growth inhibition assay with the murine B16F10 melanoma cell line on an Agilent xCELLigence Real-Time Cell Analysis platform (RTCA). RTCA E-Plate View 96 plates (Agilent, 300601010) were pre-equilibrated with 50 μL of assay media (DMEM+10% FBS, Gibco 10566-024, Gibco 10082-147) at 37° C. in a humidified incubator before taking an initial measurement of impedance (sweep). B16F10 cells cultured in assay media were dissociated with TrypLE Express (Gibco 12605-010) for five minutes at 37° C., diluted in 3 volumes of assay buffer, centrifuged for 5 minutes at 500×g at room temperature before diluting cells to 7,700 cells/mL in assay media, plating 130 μL/well (1,000 cells/well) in the inner 60 wells of the assay plate, and adding 150 μL of assay media to the outer wells of the plate. Cells were incubated at room temperature for 20 min to allow cells to settle before placing them in the xCELLigence reader and incubating overnight at 37° C., sweeping wells every 15 minutes. After 24 hours, well readings were paused, plates were removed from the incubator and compounds were added using a Tecan D300e dispenser. All wells were normalized to a final concentration of 0.5% DMSO. Following a 30 min incubation at 37° C., recombinant mouse IFNγ (R&D Systems™ 485MI100) was diluted to 10 ng/mL in assay media and 20 μL was added to assay wells (1 ng/mL final concentration). Assay plates were placed in the xCELLigence reader and swept every 15 minutes.

[2] = target: full-length human PTPN2 (TC45) (1-387) (Homo sapiens (Human), UniProt P17706); experiment: Enzymatic assay used to determine potency of PTPN2 inhibitors (full length PTPN2 DiFMUP assay); assay type: biochemical; conditions: 0.5 nM PTPN2, 100 μM DiFMUP, 30 min at room temperature
full-length human PTPN2 (TC45) (1-387), sequence (P17706 other isoform, or with tags, fused parts or gaps): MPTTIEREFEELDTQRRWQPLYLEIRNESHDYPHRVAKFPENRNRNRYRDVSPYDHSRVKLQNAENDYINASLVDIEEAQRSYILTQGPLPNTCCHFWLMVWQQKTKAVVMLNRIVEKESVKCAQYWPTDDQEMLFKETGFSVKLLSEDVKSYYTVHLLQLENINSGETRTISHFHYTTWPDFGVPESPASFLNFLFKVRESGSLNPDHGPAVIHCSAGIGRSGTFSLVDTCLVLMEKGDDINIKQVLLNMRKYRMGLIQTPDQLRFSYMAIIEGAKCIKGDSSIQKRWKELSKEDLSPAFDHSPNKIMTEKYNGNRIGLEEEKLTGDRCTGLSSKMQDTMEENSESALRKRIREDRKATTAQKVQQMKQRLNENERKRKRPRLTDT
Description: Compound activity was determined in an in vitro enzymatic assay using untagged, full-length human PTPN2 (TC45) (1-387) protein. PTPN2 was produced in E. coli as a GST-TEV fusion and the GST was removed by TEV digestion, followed by additional purification to yield full-length PTPN2 (SEQ ID 1). PTPN2 enzyme was diluted in assay buffer (50 mM HEPES pH7.5, 0.2 mM EDTA, 1 mM DTT, 0.02% Brij-35, 0.02% BSA) to a final concentration of 0.5 nM and added to black 384-well non-binding plates (Greiner, 781900). Compounds were subsequently added using a Tecan D300e dispenser. Following a 10 min incubation at room temperature, DiFMUP substrate (ThermoFisher, D22065) was added to a final concentration of 100 μM. Plates were transferred to a SpectraMax plate reader (Molecular Devices) and fluorescence intensity was measured (ex 358, em 455) after a 30 min incubation at room temperature. […] A four-parameter curve fit was used to determine IC50 values from % inhibition data.

pIC50 ([1]; Mus musculus, B16-F10, 48 h) | pIC50 ([1]; 48 hours) | SMILES | pIC50 [2]
6.03 | – | O=C1CN(c2c(O)cc(CCN3CC4(CCC4)C3)cc2F)S(=O)(=O)N1 [Example 124] | 8.70
< 4.42 | – | CCCN1CCCC(Cc2cc(O)c(N3CC(=O)NS3(=O)=O)c(F)c2)C1 (stereo not drawn) [Example 49] | 7.02
< 4.00 | – | CC(C)CCN1CCCC1CCc1cc(O)c(N2CC(=O)NS2(=O)=O)c(F)c1 (stereo not drawn) [Example 67] | 7.44
6.29 | – | CC(C)[C@@H]1CCN(CCc2cc(O)c(N3CC(=O)NS3(=O)=O)c(F)c2)C1 [Example 134] | –
5.29 | – | CCCN1CCC(Cc2cc(O)c(N3CC(=O)NS3(=O)=O)c(F)c2)C1 (stereo not drawn) [Example 11] | 7.74
5.81 | – | O=C1CN(c2c(O)cc(CCN3CCCC(F)C3)cc2F)S(=O)(=O)N1 (stereo not drawn) [Example 97] | –
5.07 | – | CC(C)CCN1CCC(Cc2cc(O)c(N3CC(=O)NS3(=O)=O)c(F)c2)C1 (stereo not drawn) [Example 19] | 7.92
6.54 | – | CC(C)[C@H]1CCN(CCc2cc(O)c(N3CC(=O)NS3(=O)=O)c(F)c2)C1 [Example 135] | –
5.05 | – | O=C1CN(c2c(O)cc(CCN3CCOCC3)cc2F)S(=O)(=O)N1 [Example 89] | –
6.68 | – | O=C1CN(c2c(O)cc(CCN3CCC(CC(F)(F)F)C3)cc2F)S(=O)(=O)N1 (stereo not drawn) [Example 130] | 9.00
5.49 | – | CC(C)(C)C1CCN(CCc2cc(O)c(N3CC(=O)NS3(=O)=O)c(F)c2)CC1 [Example 118] | 8.52
< 4.00 | – | CC(C)CCN1CCCC(Cc2cc(O)c(N3CC(=O)NS3(=O)=O)c(F)c2)C1 (stereo not drawn) [Example 41] | 7.33
6.43 | – | O=C1CN(c2c(O)cc(CCN3CC(CF)C3)cc2F)S(=O)(=O)N1 [Example 141] | 8.52
< 4.62 | – | O=C1CN(c2c(O)cc(CCN3CCC(F)(F)C3)cc2F)S(=O)(=O)N1 [Example 91] | 7.44
4.44 | – | CCCCCCN1CCC(Cc2cc(O)c(N3CC(=O)NS3(=O)=O)c(F)c2)C1 (stereo not drawn) [Example 13] | 7.89
5.57 | – | O=C1CN(c2c(O)cc(CCN3CC[C@@H](C(F)(F)F)C3)cc2F)S(=O)(=O)N1 [Example 122] | –
6.89 | – | CC1(C)CCN(CCc2cc(O)c(N3CC(=O)NS3(=O)=O)c(F)c2)C1 [Example 108] | 8.70
5.58 | – | CC(C)C[C@@H]1CCN(CCc2cc(O)c(N3CC(=O)NS3(=O)=O)c(F)c2)C1 [Example 120] | –
5.61 | 5.80 | CC(C)C[C@H]1CCN(CCc2cc(O)c(N3CC(=O)NS3(=O)=O)c(F)c2)C1 (single isomer, unassigned) [Example 119] | 8.70 and 8.52
5.98 | – | O=C1CN(c2c(O)cc(CCN3CCC(F)(F)CC3)cc2F)S(=O)(=O)N1 [Example 98] | 8.30
5.99 | – | CC(C)CCC1CCN(CCc2cc(O)c(N3CC(=O)NS3(=O)=O)c(F)c2)C1 (stereo not drawn) [Example 88] | 8.52
6.89 | – | CC(C)(C)C1CCN(CCc2cc(O)c(N3CC(=O)NS3(=O)=O)c(F)c2)C1 (stereo not drawn) [Example 111] | –
5.67 | – | O=C1CN(c2c(O)cc(CCN3CC(C(F)(F)F)C3)cc2F)S(=O)(=O)N1 [Example 137] | –
6.48 | – | COC[C@@H]1CCN(CCc2cc(O)c(N3CC(=O)NS3(=O)=O)c(F)c2)C1 [Example 117] | –
6.03 | – | O=C1CN(c2c(O)cc(CCN3CC(F)C3)cc2F)S(=O)(=O)N1 [Example 136] | –
6.33 | – | CC1CN(CCc2cc(O)c(N3CC(=O)NS3(=O)=O)c(F)c2)C1 [Example 140] | –
6.14 | – | COC1CCN(CCc2cc(O)c(N3CC(=O)NS3(=O)=O)c(F)c2)CC1 [Example 104] | –
6.18 | – | CC1(C)CN(CCc2cc(O)c(N3CC(=O)NS3(=O)=O)c(F)c2)C1 [Example 127] | –

Second part, the molecule before the results:

SMILES | pIC50 ([1]; Mus musculus, B16-F10, 48 h) | pIC50 ([1]; 48 hours) | pIC50 [2]
O=C1CN(c2c(O)cc(CCN3Cc4ccccc4C3)cc2F)S(=O)(=O)N1 [Example 128] | 6.21 | – | –
O=C1CN(c2c(O)cc(CC3CCN(Cc4ncc[nH]4)C3)cc2F)S(=O)(=O)N1 (stereo not drawn) [Example 17] | < 4.28 | – | 8.15
O=C1CN(c2c(O)ccc(CC3CCCCN3)c2F)S(=O)(=O)N1 (stereo not drawn) [Example 75] | – | – | 7.70
O=C1CN(c2c(O)cc(CC3CCN(Cc4ccn[nH]4)C3)cc2F)S(=O)(=O)N1 (stereo not drawn) [Example 18] | < 4.24 | – | 8.15
O=C1CN(c2c(O)ccc(CC3CCCCN3CCC(F)(F)F)c2F)S(=O)(=O)N1 (stereo not drawn) [Example 77] | < 4.00 | – | 8.40
O=C1CN(c2c(O)cc(CCN3CCC4(CCC4)C3)cc2F)S(=O)(=O)N1 [Example 99] | 6.74 | – | 8.70
O=C1CN(c2c(O)ccc(CC3CCCCN3CCc3ccccc3)c2F)S(=O)(=O)N1 (stereo not drawn) [Example 78] | 4.96 | – | 7.89
O=C1CN(c2c(O)cc(CCN3CCC4(CCCCC4)C3)cc2F)S(=O)(=O)N1 [Example 116] | 6.76 | – | 8.70
CCCC1NCCC1Cc1cc(O)c(N2CC(=O)NS2(=O)=O)c(F)c1 (stereo not drawn) [Example 28] | < 4.24 | – | 7.64
O=C1CN(c2c(O)cc(CC3CCN(CC4CCCO4)C3)cc2F)S(=O)(=O)N1 (stereo not drawn) [Example 14] | 4.28 | – | 7.85
O=C1CN(c2c(O)cc(CC3CCCN(CC4CCCC4)C3)cc2F)S(=O)(=O)N1 (stereo not drawn) [Example 34] | 5.00 | – | 7.37
O=C1CN(c2c(O)cc(CC3CCCN(Cc4cnco4)C3)cc2F)S(=O)(=O)N1 (stereo not drawn) [Example 48] | < 4.48 | – | 6.65
O=C1CN(c2c(O)cc(CC3CCCNC3)cc2F)S(=O)(=O)N1 (stereo not drawn) [Example 54] | 4.59 | – | 7.12
O=C1CN(c2c(O)cc(CC3CCN(CC4CCOC4)C3)cc2F)S(=O)(=O)N1 (stereo not drawn) [Example 15] | < 4.32 | – | 7.62
O=C1CN(c2c(O)cc(CC3CCCN(Cc4ccco4)C3)cc2F)S(=O)(=O)N1 (stereo not drawn) [Example 46] | < 4.00 | – | 7.12
O=C1CN(c2c(O)cc(CC3CCNC3)cc2F)S(=O)(=O)N1 (stereo not drawn) [Example 27] | 5.01 | – | 8.15
O=C1CN(c2c(O)cc(CN3CCCC3)cc2F)S(=O)(=O)N1 [Example 73] | 5.06 | – | 7.04
O=C1CN(c2c(O)cc(CC3CNC3)cc2F)S(=O)(=O)N1 [Example 69, 5-(4-(azetidin-3-ylmethyl)-2-fluoro-6-hydroxyphenyl)-1,2,5-thiadiazolidin-3-one 1,1-dioxide] | 4.87 | – | 7.82
O=C1CN(c2c(O)cc(CC3CCCN(Cc4ccoc4)C3)cc2F)S(=O)(=O)N1 (stereo not drawn) [Example 45] | 4.26 | – | 7.52
CC(C)CCCN1CCCCC1Cc1ccc(O)c(N2CC(=O)NS2(=O)=O)c1F (stereo not drawn) [Example 79] | 5.46 | – | –
O=C1CN(c2c(O)cc(CC3CCCNCC3)cc2F)S(=O)(=O)N1 (stereo not drawn) [Example 57] | – | – | 7.82
O=C1CN(c2c(O)cc(C[C@H]3CCNC3)cc2F)S(=O)(=O)N1 (single isomer, unassigned) [Example 25] | – | – | 7.82
O=C1CN(c2c(O)cc(CC3CCCN(Cc4cocn4)C3)cc2F)S(=O)(=O)N1 (stereo not drawn) [Example 47] | – | – | 7.01
CN1CCC(Cc2cc(O)c(N3CC(=O)NS3(=O)=O)c(F)c2)C1 (stereo not drawn) [Example 1, 5-(2-fluoro-6-hydroxy-4-((1-methylpyrrolidin-3-yl)methyl)phenyl)-1,2,5-thiadiazolidin-3-one 1,1-dioxide] | – | – | 8.15
O=C1CN(c2c(O)cc(CC3CCN(Cc4ccco4)C3)cc2F)S(=O)(=O)N1 (stereo not drawn) [Example 7] | 5.61 | – | –
O=C1CN(c2c(O)cc(C[C@@H]3CCNC3)cc2F)S(=O)(=O)N1 (single isomer, unassigned) [Example 26] | – | – | 8.10
O=C1CN(c2c(O)cc(CCN3CCC4(CCOCC4)C3)cc2F)S(=O)(=O)N1 [Example 113] | 6.67 | – | –
O=C1CN(c2c(O)ccc(CC3CCCCN3CCC3CCCC3)c2F)S(=O)(=O)N1 (stereo not drawn) [Example 80] | 4.64 | – | –
O=C1CN(c2c(O)cc(CCN3CCC4(CCCC4)C3)cc2F)S(=O)(=O)N1 [Example 112] | 6.78 | – | –
